# Test results published in patent US7420001B2 (Wyeth, priority 2003, dated 2008).
# Like-named read-outs stand apart in the source and are kept apart here.
# How the values were obtained:
# MMP-2 = molecular target: T1, MMP-2 (Homo sapiens, UniProt P08253); test: In-vitro fluorescence assay of MMP-2 activity; type: biochemical; conditions: recombinant human MMP-2; read-out: MMP-2 IC50
# T1 construct: purchased Oncogene Research Products (Calbiochem) PF023
# T1 sequence (P08253 110-660): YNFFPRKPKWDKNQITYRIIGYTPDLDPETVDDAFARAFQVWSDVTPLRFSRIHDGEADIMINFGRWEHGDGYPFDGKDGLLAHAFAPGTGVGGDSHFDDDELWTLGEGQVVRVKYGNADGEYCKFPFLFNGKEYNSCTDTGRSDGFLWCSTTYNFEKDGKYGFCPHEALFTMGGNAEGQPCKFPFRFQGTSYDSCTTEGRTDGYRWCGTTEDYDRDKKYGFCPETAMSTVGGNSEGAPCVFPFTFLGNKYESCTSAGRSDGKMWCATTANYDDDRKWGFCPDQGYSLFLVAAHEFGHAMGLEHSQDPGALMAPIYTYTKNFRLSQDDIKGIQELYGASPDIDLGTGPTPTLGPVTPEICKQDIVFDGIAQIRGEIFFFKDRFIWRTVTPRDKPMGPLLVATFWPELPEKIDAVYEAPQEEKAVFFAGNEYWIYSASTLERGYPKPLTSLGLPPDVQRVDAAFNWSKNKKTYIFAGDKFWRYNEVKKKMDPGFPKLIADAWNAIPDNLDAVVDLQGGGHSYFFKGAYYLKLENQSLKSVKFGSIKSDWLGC
# MMP-12 = molecular target: T2, MMP-12 (Homo sapiens, UniProt P39900); test: In vitro fluorescence assay of MMP-12 activity; type: biochemical; conditions: recombinant human MMP-12
# T2 construct: made in house
# T2 sequence (P39900 106-280 limits assumed): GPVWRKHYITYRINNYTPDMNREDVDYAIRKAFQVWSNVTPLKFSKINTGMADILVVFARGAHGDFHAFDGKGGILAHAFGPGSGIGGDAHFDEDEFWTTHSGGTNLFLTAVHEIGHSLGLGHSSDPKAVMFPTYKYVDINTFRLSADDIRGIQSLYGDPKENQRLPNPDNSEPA
# Experimental: A continuous, assay was used in which the substrate is a synthetic peptide containing a fluorescent group (7-methoxycoumarin; Mca) which is quenched by energy transfer to a 2,4-dinitrophenyl group. […] The concentration of the substrate stock was spectrophotometrically determined using the extinction coefficient at 410 nm of 7500 M^−1cm^−1. The assay buffer (pH 7.4) consisted of 50 mM Hepes, 100 mM NaCl, 5 mM CaCl2, and 0.005% Brij-35. […] The plates were then incubated at room temperature for 30 minutes. The enzymatic reactions were initiated by adding substrate to a final concentration of 20 μM and they were mixed by pipetting up and down. The final DMSO concentration in the assay was 10% and the final, total assay volume was 200 μl.
# MMP-13 = molecular target: T3, MMP-13 (Homo sapiens, UniProt P45452); test: In-vitro fluorescence assay of MMP-13 activity; type: biochemical
# T3 construct: made in house
# Experimental: A continuous assay was used in which the substrate is a synthetic peptide containing a fluorescent group (7-methoxycoumarin; Mca) which is quenched by energy transfer to a 2,4-dinitrophenyl group. […] The substrate used was Mca-PQGL-(3-[2,4-dinitrophenyl]-L-2,3-diaminopropionyl)-AR-OH (denoted as Wammp-5, custom synthesized by AnaSpec, Inc.). The assay buffer consisted of 50 mM Hepes (pH 7.4), 100 mM NaCl, 5 mM CaCl2, and 0.005% Brij-35. Each well of black polystyrene 96-well plates contained a 200 μL reaction mixture consisting of assay buffer, purified MMP (final concentration of 0.5 nM, prepared by diluting with the assay buffer), and varied concentrations of inhibitor (prepared by serially diluting a given inhibitor in DMSO in 96-well polypropylene plate). […] The enzymatic reactions were initiated by adding the substrate to a final concentration of 20 μM, and mixing 10 times with a pipette. The final DMSO concentration in the assay was 6.0%.
# (§1) Plots of the inhibitor concentration vs. the percent inhibition were fit to the following equation: y=(a−d)/[1+(x/c)^b]+d, a general sigmoidal curve with Hill slope, a to d. x is the inhibitor concentration under test. y is the percent inhibition. a is the limiting response as x approaches zero. As x increases without bound, y tends toward its limit d. c is the inflection point (IC50) for the curve. That is, y is halfway between the lower and upper asymptotes when x=c. b is the slope factor or Hill coefficient.
# MMP-14 = molecular target: T4, MMP-14 (Homo sapiens, UniProt P50281); test: In-vitro fluorescence assay of MMP-14 activity; type: biochemical
# T4 construct: 20 kDa; purchased Chemicon International, Inc. CC 1041
# Experimental: A continuous assay was used in which the substrate is a synthetic peptide containing a fluorescent group (7-methoxycoumarin; Mca) which is quenched by energy transfer to a 2,4-dinitrophenyl group. […] The substrate used was Mca-PQGL-(3-[2,4-dinitrophenyl]-L-2,3-diaminopropionyl)-AR-OH (denoted as Wammp-5, custom synthesized by AnaSpec, Inc.). The assay buffer consisted of 50 mM Hepes (pH 7.4), 100 mM NaCl, 5 mM CaCl2, and 0.005% Brij-35. […] The enzymatic reactions were initiated by adding the substrate to a final concentration of 20 μM, and mixing 10 times with a pipette. The final DMSO concentration in the assay was 6.0%.
# as §1
# MMP-1 = molecular target: T5, MMP-1 (Homo sapiens, UniProt P03956)
# T5 sequence (P03956 100-269 limits assumed): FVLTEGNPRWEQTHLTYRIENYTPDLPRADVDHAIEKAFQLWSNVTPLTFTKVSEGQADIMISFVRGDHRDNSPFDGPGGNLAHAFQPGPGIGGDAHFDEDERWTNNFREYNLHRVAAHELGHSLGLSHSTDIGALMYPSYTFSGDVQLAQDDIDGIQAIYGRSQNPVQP
# Experimental: A continuous assay was used in which the substrate is a synthetic peptide containing a fluorescent group (7-methoxycoumarin; Mca) which is quenched by energy transfer to a 2,4-dinitrophenyl group. […] The substrate used was Mca-PQGL-(3-[2,4-dinitrophenyl]-L-2,3-diaminopropionyl)-AR-OH (denoted as Wammp-5, custom synthesized by AnaSpec, Inc.). The assay buffer consisted of 50 mM Hepes (pH 7.4), 100 mM NaCl, 5 mM CaCl2, and 0.005% Brij-35. Each well of black polystyrene 96-well plates contained a 200 μL reaction mixture consisting of assay buffer, purified MMP (final concentration of 25 ng/ml, prepared by diluting with the assay buffer), and varied concentrations of inhibitor (prepared by serially diluting a given inhibitor in DMSO in 96-well polypropylene plate). […] The enzymatic reactions were initiated by adding the substrate to a final concentration of 20 μM, and mixing 10 times with a pipette. The final DMSO concentration in the assay was 6.0%.
# as §1
# [1] = recombinant human catalytic domain of MMP-13, read-out: MMP-13 IC50
# [2] = recombinant human catalytic domain of MMP-14
smiles,measurement,setting,value
"CC#Cc1cccc2oc(C(=O)Nc3ccc(-c4ccc(S(=O)(=O)N[C@H](C(=O)O)C(C)C)cc4)cc3)c(C)c12 [Example 21, L-3-Methyl-2-{4′-[(3-methyl-4-prop-1-ynyl-benzofuran-2-carbonyl)-amino]-biphenyl-4-sulfonylamino}-butyric acid]",IC50,MMP-2,15000 nM
same,IC50,MMP-12,175 nM
same,IC50,MMP-13; [1],9.5 nM
"COCC#Cc1cccc2oc(C(=O)Nc3ccc(-c4ccc(S(=O)(=O)N[C@H](C(=O)O)C(C)C)cc4)cc3)c(C)c12 [Example 22, L-2-(4′-{[4-(3-Methoxy-prop-1-ynyl)-3-methyl-benzofuran-2-carbonyl]-amino}-biphenyl-4-sulfonylamino)-3-methyl-butyric acid]",IC50,MMP-2,1940 nM
same,IC50,MMP-12,137 nM
same,IC50,MMP-13; [1],12 nM
"Cc1c(C(=O)Nc2ccc(-c3ccc(S(=O)(=O)N[C@H](C(=O)O)C(C)C)cc3)cc2)oc2cccc(C#CCN(C)C)c12 [Example 31, L-2-(4′-{[4-(3-Dimethylamino-prop-1-ynyl)-3-methyl-benzofuran-2-carbonyl]-amino}-biphenyl-4-sulfonylamino)-3-methyl-butyric acid]",IC50,MMP-2,1450 nM
same,IC50,MMP-12,155 nM
same,IC50,MMP-13; [1],16 nM
"Cc1c(C(=O)Nc2ccc(-c3ccc(S(=O)(=O)N[C@H](C(=O)O)C(C)C)cc3)cc2)oc2cccc(NS(C)(=O)=O)c12 [Example 36, L-2-{4′-[(4-Methanesulfonylamino-3-methyl-benzofuran-2-carbonyl)-amino]-biphenyl-4-sulfonylamino}-3-methyl-butyric acid]",IC50,MMP-2,2250 nM
same,IC50,MMP-12,126 nM
same,IC50,MMP-13; [1],11 nM
"Cc1c(C(=O)Nc2ccc(-c3ccc(S(=O)(=O)N[C@H](C(=O)O)C(C)C)cc3)cc2)oc2cccc(NC(=O)C3CC3)c12 [Example 47, L-2-(4′-{[4-(Cyclopropanecarbonyl-amino)-3-methyl-benzofuran-2-carbonyl]-amino}-biphenyl-4-sulfonylamino)-3-methyl-butyric acid]",IC50,MMP-2,4290 nM
same,IC50,MMP-12,438 nM
same,IC50,MMP-13; [1],32 nM
"CC(=O)Nc1cccc2oc(C(=O)Nc3ccc(-c4ccc(S(=O)(=O)N[C@H](C(=O)O)C(C)C)cc4)cc3)c(C)c12 [Example 48, L-2-{4′-[(4-Acetylamino-3-methyl-benzofuran-2-carbonyl)-amino]-biphenyl-4-sulfonylamino}-3-methyl-butyric acid]",IC50,MMP-2,3810 nM
same,IC50,MMP-12,226 nM
same,IC50,MMP-13; [1],25 nM
"Cc1c(C(=O)Nc2ccc(-c3ccc(S(=O)(=O)N[C@H](C(=O)O)C(C)C)cc3)cc2)oc2cccc(OCC3CC3)c12 [Example 51, L-2-{4′-[(4-Cyclopropylmethoxy-3-methyl-benzofuran-2-carbonyl)-amino]-biphenyl-4-sulfonylamino}-3-methyl-butyric acid]",IC50,MMP-2,7110 nM
same,IC50,MMP-12,187 nM
same,IC50,MMP-13; [1],11 nM
"Cc1nn(C)c2sc(C(=O)Nc3ccc(-c4ccc(S(=O)(=O)N[C@H](C(=O)O)C(C)C)cc4)cc3)cc12 [Example 80, (S)-2-{4′-[(1,3-Dimethyl-1H-thieno[2,3-c]pyrazole-5-carbonyl)-amino]-biphenyl-4-sulfonylamino}-3-methyl-butyric acid]",IC50,MMP-2,4350 nM
same,IC50,MMP-12,51 nM
same,IC50,MMP-13; [1],43 nM
"COc1cccc2oc(C(=O)Nc3ccc(-c4ccc(S(=O)(=O)N[C@H](C(=O)O)C(C)C)cc4)cc3)c(C)c12 [Example 105, (S)-2-{4′-[(4-Methoxy-3-methyl-benzofuran-2-carbonyl)-amino]-biphenyl-4-sulfonylamino}-3-methyl-butyric acid]",IC50,MMP-2,1050 nM
same,IC50,MMP-12,60 nM
same,IC50,MMP-13; [1],9.5 nM
"Cc1c(C(=O)Nc2ccc(-c3ccc(S(=O)(=O)N[C@H](C(=O)O)C(C)C)cc3)cc2)oc2cccc(-c3ccccc3)c12 [Example 109, (S)-3-Methyl-2-{4′-[(3-methyl-4-phenyl-benzofuran-2-carbonyl)-amino]-biphenyl-4-sulfonylamino}-butyric acid]",IC50,MMP-2,3650 nM
same,IC50,"MMP-13; MMP-13 IC50, recombinant human catalytic domain of MMP-13",15 nM
same,IC50,MMP-14; [2],7000 nM
same,IC50,MMP-1,11000 nM
"Cc1c(C(=O)Nc2ccc(-c3ccc(S(=O)(=O)N[C@H](C(=O)O)C(C)C)cc3)cc2)oc2cccc(-c3cccc([N+](=O)[O-])c3)c12 [Example 110, (S)-3-Methyl-2-(4′-{[3-methyl-4-(3-nitro-phenyl)-benzofuran-2-carbonyl]-amino}-biphenyl-4-sulfonylamino)-butyric acid]",IC50,MMP-2,2400 nM
same,IC50,MMP-13; [1],17 nM
same,IC50,MMP-14; [2],20000 nM
same,IC50,MMP-1,49600 nM
"COc1c(Br)ccc2oc(C(=O)Nc3ccc(-c4ccc(S(=O)(=O)N[C@H](C(=O)O)C(C)C)cc4)cc3)c(C)c12 [Example 118, (S)-2-{4′-[(5-bromo-4-methoxy-3-methyl-benzofuran-2-carbonyl)-amino]-biphenyl-4-sulfonylamino}-3-methyl-butyric acid]",IC50,MMP-2,1700 nM
same,IC50,MMP-13; [1],2.3 nM
same,IC50,MMP-14,14600 nM
same,IC50,"MMP-1; read-out: MMP-1 IC50, recombinant human catalytic domain of MMP-1",30000 nM
"CC(C)[C@@H](NS(=O)(=O)c1ccc(-c2ccc(OC(=O)c3cc4ccccc4o3)cc2)cc1)C(=O)O [Example 135, Benzofuran-2-carboxylic acid 4′-(1-carboxy-2-methyl-propylsulfamoyl)-biphenyl-4-yl ester]",IC50,MMP-2,0.7 nM
same,IC50,MMP-13; [1],0.5 nM
same,IC50,MMP-14; [2],2000 nM
same,IC50,MMP-1,20000 nM
"CC(C)[C@@H](NS(=O)(=O)c1ccc(-c2ccc(NC(=O)c3nc4ccccc4s3)cc2)cc1)C(=O)O [Example 152, D-2-{4′-[(Benzothiazole-2-carbonyl)-amino]-biphenyl-4-sulfonylamino}-3-methyl-butyric acid]",IC50,MMP-12,1.1 nM
same,IC50,MMP-13; [1],0.7 nM
"CC(C)[C@H](NS(=O)(=O)c1ccc(-c2ccc(NC(=O)c3cc4c(ccc5ccccc54)o3)cc2)cc1)C(=O)O [Example 153, L-3-Methyl-2-{4′-[(naphtho[2,1-b]furan-2-carbonyl)-amino]-biphenyl-4-sulfonylamino}-butyric acid]",IC50,MMP-2,14 nM
same,IC50,MMP-13; [1],0.5 nM
same,IC50,MMP-14; [2],17000 nM
same,IC50,MMP-1,40000 nM
"Cc1cc(C(=O)Nc2ccc(-c3ccc(S(=O)(=O)N[C@H](C(=O)O)C(C)C)cc3)cc2)nn1-c1ccccc1 [Example 168, (S)-3-Methyl-2-{4′-[(5-methyl-1-phenyl-1H-pyrazole-3-carbonyl)-amino]-biphenyl-4-sulfonylamino}-butyric acid]",IC50,MMP-2,1290 nM
same,IC50,MMP-13; [1],99 nM
same,IC50,MMP-14; [2],36000 nM
same,IC50,MMP-1,60000 nM
"CC(C)[C@H](NS(=O)(=O)c1ccc(-c2ccc(NC(=O)c3csc(-c4ccncc4)n3)cc2)cc1)C(=O)O [Example 169, (S)-3-Methyl-2-{4′-[(2-pyridin-4-yl-thiazole-4-carbonyl)-amino]-biphenyl-4-sulfonylamino}-butyric acid]",IC50,MMP-2,1190 nM
same,IC50,MMP-13; [1],75 nM
same,IC50,MMP-14; [2],40000 nM
same,IC50,MMP-1,40400 nM
"CC(C)[C@H](NS(=O)(=O)c1ccc(-c2ccc(NC(=O)c3cccs3)cc2)cc1)C(=O)O [Example 174, (S)-3-Methyl-2-{4′-[(thiophene-2-carbonyl)-amino]-biphenyl-4-sulfonylamino}-butyric acid]",IC50,MMP-2,61 nM
same,IC50,MMP-13; [1],25 nM
same,IC50,MMP-14; [2],6130 nM
same,IC50,MMP-1,7400 nM
"CC(C)[C@H](NS(=O)(=O)c1ccc(-c2ccc(NC(=O)c3ccco3)cc2)cc1)C(=O)O [Example 175, (S)-2-{4′-[(Furan-2-carbonyl)-amino]-biphenyl-4-sulfonylamino}-3-methyl-butyric acid]",IC50,MMP-2,5.7 nM
same,IC50,MMP-13; [1],11 nM
same,IC50,MMP-14; [2],2910 nM
same,IC50,MMP-1,3090 nM
